Reference: US8404265B2, “Contact lenses for extended release of bioactive agents containing diffusion attenuators” (University of Florida Research Foundation, Inc., priority 2008, dated 2013)
Blank lines part the entries; values can stand above or below the compound they belong to.

What was measured:
Format in all cases: physicochemical
Solubility of DX = assay: Solubility of DX
Method: For various drug loading methods, the mass of drug released at various time increments was divided by the total drug released at long time and plotted as a function of time. […] A DX-ethanol solution of equivalent concentration as the DX-PBS, 0.08 mg/ml as that of DX-PBS solution was used to allow direct comparison of the two loading modes, although a saturated DX in ethanol is about 1 mg/ml. […] For these lenses, there is not much difference in the total release amount of DX from the lenses soaked in DX-PBS solution for two different soaking times, but slower DX release is observed from lenses that were soaked for 7 days than that for 24 hours. […] For total release amount of DX, PureVision™ and ACUVUE® OASYS™ lenses release relatively smaller amounts (about 28 μg and 35 μg, respectively) compared to the other three lenses (about 38-41 μg). There is no correlation between amount of drugs released and the water content, which is likely because the hydrophobic drugs are expected to partition in the silicone rich phases, and so the partition coefficients in the gels will be mainly influenced by the silicone composition of the lenses. All the lenses soaked in DX-ethanol solution release substantially low amount of DX (2-8 μg). […]

[1] = DX uptake, release and partition coefficient, Vitamin E loaded lenses; settings: release from Vitamin E loaded lenses
Method: Drug containing Vitamin E loaded lenses were prepared by directly adding drug to a Vitamin E-ethanol solution before soaking the pure lens in the solution, or by soaking a Vitamin E loaded lens in a drug-PBS solution. Drug containing Vitamin E-ethanol solutions were prepared by dissolving the drug in 3 ml of a Vitamin E-ethanol solution and then pure lens were soaked in this drug/Vitamin E-ethanol for 24 hours. The drug containing Vitamin E-ethanol lenses were taken from the solution blotted with wipes and dried overnight before subsequent release experiments.
For PureVision™ lens loaded with Vitamin E, only three different Vitamin E loadings were examined since the effect of Vitamin E loading on drug transport is minimal compared to other lenses. The insets in FIG. 21 show plots for drug release for the initial hours. Vitamin E was loaded in the lens, the lens were dried and DX was loaded in the Vitamin E loaded lens by soaking the lens in the DX-PBS solutions. […] DX loading time is relatively long for ACUVUE® OASYS™ lenses and relatively short for PureVision™ lenses relative to that of NIGHT&DAY™ and O2OPTIX lenses for similar Vitamin E loadings regardless of the level of Vitamin E loading.
For loading, an experimentally determined partition coefficient of drug in the Vitamin E loaded lens (K) is defined as: […]

[2] = Diffusivity ratio from slope of % release versus square root of time; settings: pure lenses
Description: FIG. 31 plots % drugs release by Vitamin E loaded lenses as a function of the square root of time, for DX, timolol, fluzonazole and DXP. The lines of FIG. 31 are best fit straight lines over short time release data having R^2 larger than 0.98. […] The straight lines can be expressed by the equation:
[formula] where Mt is the mass of drug released at time t, M∞ the mass of drug release as time approaches infinity and for perfect sink condition M∞=M0 (initial drug loading). Therefore, from the slope of the straight line in FIG. 31, diffusivities of drug in the Vitamin E loaded lens can be determined if the mean lens thickness is known. The slope for DX, timolol, fluzonazole and DXP release is plotted versus Vitamin E loading in FIG. 32A-D. The slope decreases as Vitamin E loading increases for all lenses for all drugs release, which means (√{square root over (D)}/h) decreases. […] The h also increases as Vitamin E loading increases and lens expands symmetrically for all expansion axes (isotropic expansion) as described above. The increase of h might be 6.8% for hydrated O2OPTIX lens with 34% Vitamin E loading from FIG. 5B. Consequently, √{square root over (D)} is 39.5% of that of pure lens, i.e., D of DX in the 34% Vitamin E loaded O2OPTIX lens is 15% of that of the vitamin free (pure) lens. […]

- concentration of nearly saturated DX-PBS solution (Solubility of DX; PBS, room temperature): ~80 µg/mL
- saturated DX in ethanol (Solubility of DX; ethanol): about 1 mg/ml
Compound: C[C@@H]1C[C@H]2[C@@H]3CCC4=CC(=O)C=C[C@]4(C)[C@@]3(F)[C@@H](O)C[C@]2(C)[C@@]1(O)C(=O)CO [DX, dexamethasone]

Compound: Vitamin E
- Vitamin E in the release medium, PBS [1]: not detected

- D0 of timolol relative to D0 of DX [2]: about 3 factor
Compound: CC(C)(C)NC[C@H](O)COc1nsnc1N1CCOCC1 [timolol]
